Results taken from patent publication US12036267B2 (BICT S.R.L., priority 2017, dated 2024).

How the values were obtained:
S. aureus = assay: Antimicrobial activity (MIC / FIC index) of extracts and nisin; type: cell-based; details: nisin alone
Method: (§1) The antimicrobial activity of the composition according to the invention has been assessed in relation to gram-positive and gram-negative bacteria, as well as fungi and yeast, by means of in vitro susceptibility testing with the antimicrobial dilution method (CLSI protocols—Clinical and Laboratory Standards Institute), as a result of which the MIC (Minimum Inhibitory Concentration) was determined for each of the microorganisms in question.
(§2) For all the tests carried out, a positive control for the antimicrobial activity was carried out by using fluconazole (for fungi and yeasts) and ceftriaxone (for bacterial strains) and a negative control (no compounds) in which the correct microbial growth was assessed.
(§3) The FIC index is determined using the following formula:
(§4) FIC Index>1=> no synergistic effect
(§5) In this example, the antimicrobial activity of the individual natural extracts was first assessed as follows:
(§6) The antimicrobial activity of the individual natural extracts was then assessed in association with the composition according to the invention in Example 8:
(§7) The interaction of the composition in Example 8 with other natural antimicrobial peptides, such as nisin, was assessed.
(§8) After determining the antimicrobial activity of nisin alone, the antimicrobial activity of nisin was assessed in association with the composition according to the invention: […]

E. coli = assay: as above; type: cell-based; details: nisin alone
Method: as §1, §2, §3, §4, §5, §6, §7, §8

Q: For nisin, which MIC (S. aureus) is on record?
A: S. aureus - 17 UI/ml

Q: And the MIC (E. coli)?
A: E. coli - 18750 UI/ml
